From ChEMBL document CHEMBL1141371, “Cytotoxic 5-alkylresorcinol metabolites from the leaves of Grevillea robusta” (J Nat Prod, 2007)
pIC50: −log10 of the molar value.

How the values were obtained:
[1] = tested on: MCF7; assay: Cytotoxicity against human MCF7 cells; format: cell-based
[2] = tested on: NCI-H460; assay: Cytotoxicity against human NCI-H460 cells; format: cell-based
[3] = tested on: SF-268; assay: Cytotoxicity against human SF268 cells; format: functional, cell-based

| SMILES | pIC50 [1] | pIC50 [2] | pIC50 [3] |
| --- | --- | --- | --- |
| Oc1cc(O)cc(CCCCC/C=C/CCCCCCCc2cc(O)cc(O)c2)c1 | 4.54 | 4.56 | 4.51 |
| COc1cc(O)cc2c1-c1c(O)cc(cc1O)CCCCCCC/C=C/CCCCC2 | 4.53 | 4.55 | 4.54 |
| Oc1cc(O)c2c(c1)CCCCCCCCCCCCCCc1cc(O)c-2c(O)c1 | 4.54 | 4.64 | 4.56 |
| COc1cc(O)cc2c1-c1c(O)cc(cc1O)CCCCCCCCCCCCCC2 | 4.51 | 4.54 | 4.51 |
| Oc1cc2cc(c1)Oc1c(O)cc(cc1O)[C@H](O)CCCCCCCCCCCCC2 | 4.51 | 4.57 | 4.49 |
| COc1cc(O)cc(CCCCCCCCCCCCCCc2cc(O)cc(O)c2)c1 [BISGRAVILLOL] | 4.53 | 4.54 | 4.53 |
| Oc1cc(O)cc(CCCCCCCCCCCCCCc2cc(O)cc(O)c2)c1 [BISNORSTRIATOL] | 4.53 | 4.54 | 4.53 |
| CCCCCCCCCCCCCCCc1cc(O)cc(O)c1 [CARDOL] | 4.43 | 4.47 | 4.40 |
| COc1cc(O)cc(CCCCCCC/C=C/CCCCCc2cc(O)cc(O)c2)c1 [DEHYDROBISGRAVILLOL] | 4.53 | 4.57 | 4.52 |
| Oc1cc2cc(c1)Oc1c(O)cc(cc1O)[C@H](O)CCCCCC/C=C/CCCCC2 [DEHYDROGRAVICYCLE] | 4.52 | 4.55 | 4.50 |
| Oc1cc(O)c2c(c1)CCCCC/C=C/CCCCCCCc1cc(O)c-2c(O)c1 [DEHYDROGRAVIPHANE] | 4.51 | 4.60 | 4.48 |
| Oc1cc2cc(c1)Oc1c(O)cc(cc1O)CCCCCCC/C=C/CCCCC2 [DEHYDROROBUSTOL A] | 4.50 | 4.55 | 4.48 |
| Oc1cc2cc(c1)Oc1c(O)cc(cc1O)CCCCCCCCCCCCCC2 [ROBUSTOL] | 4.49 | 4.62 | 4.49 |
